“Also recorded” adds a separate entry of the source. *1 amine or outer side, *2 acyl side, *3 side chain or, on linkers, in order; H or OH if unused. Where a SMILES comes first, the peptide text is derived from it. [ ]: non-standard residue; d: D form. dAla(ψthiazole) = C[C@@H](N[*:1])c1nc(C(=O)[*:2])cs1; Trp(4-OMe) = COc1cccc2[nH]cc(C[C@H](N)C(=O)O)c12; dAbu = CC[C@@H](N)C(=O)O; Dha = C=C(N)C(=O)O; Sar = CNCC(=O)O
How the values were obtained:
[1] = target: T1, P. aeruginosa EF-G1 (Pseudomonas aeruginosa, UniProt Q9HWD2); assay: Surface plasmon resonance (SPR); type: binding
T1 construct: P. aeroginosa fusA1 encoding full-length EF-G was PCR amplified from pET28a-PaEFG-Nhis; made in house; host or cells: E. coli BL21 (DE3)
From the text: (§1) For wild type P. aeruginosa EF-G1 expression, the fusA gene was amplified from genomic DNA of P. aeruginosa PAO1 K767 using the primer pair EFG-F/EFG-R: […]/[…]. The product was digested with NdeI and HindIII and ligated into similarly digested pET28a to generate pET28a-PaEFG-Nhis. This plasmid was then used for site directed mutagenesis to introduce the nucleotide change encoding EF-G1S459F (pET28a-PaEFGS459F-Nhis). The plasmids were then transformed into an E. coli strain BL21 (DE3) for expression. A single colony was used to inoculate 10 ml LB broth containing 50 µg/ml kanamycin which was incubated at 37°C overnight, with shaking at 250 rpm. The overnight culture was then diluted 100-fold into 1 liter fresh LB broth containing 50 µg/ml kanamycin. After growing at 37°C with vigorous shaking for about 2.5 hours, expression of P. aeruginosa EF-G1 or EF-G1S459F was then induced by adding 0.1 mM IPTG, with further culture incubation at 18°C for 24 hours. Cells were then pelleted by centrifugation at 5,000 rpm with Sorvall SLC-6000 rotor and stored at −20°C. Cell pellets were then resuspended in 20 ml of BugBuster solution (Novagen) and incubated at room temperature for 20 minutes. […] The protein in the fractions was monitored by UV absorbance at 280 nm. […] Protein concentration was determined by Nano-drop spectrophotometer. […]

[2] = target: T2, EF-G1 S459F (Pseudomonas aeruginosa, UniProt Q9HWD2, S459F); assay: Surface plasmon resonance (SPR), EF-G1 S459F; type: binding, P. aeruginosa; details: Biacore, data not shown
T2 construct: P. aeroginosa fusA1 encoding full-length EF-G was PCR amplified from pET28a-PaEFG-Nhis; made in house; host or cells: E. coli BL21 (DE3)
From the text: as §1

[3] = target: T1, P. aeruginosa EF-G1; assay: Co-crystal structure of EF-G1 with argyrin B; type: binding; details: PDB 4FN5, 2.9 Å
Description: BL21 (DE3) cells harboring pET28a-PaEFG-Nhis were grown in Terrific Broth containing 100 µg/ml kanamycin. EF-G1 expression was induced using 1 mM IPTG. Cell pellets were resuspended and lysed using a microfluidizer, after which ultracentrifugation was performed. Purification was done using NiNTA resin followed by removal of the N-terminal Histidine tag with thrombin protease. The protein was further purified using a Mono Q column and was then concentrated and loaded onto a HiLoad Superdex 200 26/60 column, exchanging the protein into 25 mM Tris-HCl pH 7.5, 150 mM NaCl and 1 mM TCEP. […] Sitting drop vapor diffusion method was used for crystallization, with the crystallization well containing 100 mM Tris-HCl pH 7.5, 18% PEG 3350 and 200 mM sodium nitrate, and the drop containing a 1∶1 volume of protein and crystallization solution. After crystals formed they were subsequently cryoprotected using the crystallization solution with the addition of 20% glycerol, followed by flash freezing directly into liquid nitrogen.
The data were measured from a single crystal maintained at 100°K, and the reflections were indexed, integrated, and scaled using autoPROC [27], [28]. The spacegroup of the complex is C2 with 1 molecule in the asymmetric unit. The structure was determined with PHASER [29] using molecular replacement methods with a starting model of Thermus thermophilus EF-G (PDB Code 2BM0). […]

T1 sequence (Q9HWD2 whole entry): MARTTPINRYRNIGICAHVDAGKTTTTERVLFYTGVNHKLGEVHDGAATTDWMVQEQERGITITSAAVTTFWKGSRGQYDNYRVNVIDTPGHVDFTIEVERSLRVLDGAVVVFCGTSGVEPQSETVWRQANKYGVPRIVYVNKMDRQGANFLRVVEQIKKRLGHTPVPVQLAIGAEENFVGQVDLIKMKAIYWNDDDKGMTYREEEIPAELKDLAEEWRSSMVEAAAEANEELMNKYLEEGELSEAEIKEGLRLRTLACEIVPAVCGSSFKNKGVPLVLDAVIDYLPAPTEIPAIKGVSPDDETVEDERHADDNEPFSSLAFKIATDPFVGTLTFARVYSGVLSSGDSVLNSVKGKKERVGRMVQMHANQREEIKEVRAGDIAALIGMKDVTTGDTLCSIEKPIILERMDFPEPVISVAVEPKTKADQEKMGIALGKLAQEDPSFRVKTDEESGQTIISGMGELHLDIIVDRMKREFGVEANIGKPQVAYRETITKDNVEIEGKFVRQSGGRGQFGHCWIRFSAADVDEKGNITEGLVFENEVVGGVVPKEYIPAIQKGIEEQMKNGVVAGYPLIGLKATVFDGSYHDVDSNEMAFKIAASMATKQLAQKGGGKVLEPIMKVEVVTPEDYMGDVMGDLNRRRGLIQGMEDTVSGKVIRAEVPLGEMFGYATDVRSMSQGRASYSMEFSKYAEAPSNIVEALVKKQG
T2 sequence (Q9HWD2 whole entry S459F): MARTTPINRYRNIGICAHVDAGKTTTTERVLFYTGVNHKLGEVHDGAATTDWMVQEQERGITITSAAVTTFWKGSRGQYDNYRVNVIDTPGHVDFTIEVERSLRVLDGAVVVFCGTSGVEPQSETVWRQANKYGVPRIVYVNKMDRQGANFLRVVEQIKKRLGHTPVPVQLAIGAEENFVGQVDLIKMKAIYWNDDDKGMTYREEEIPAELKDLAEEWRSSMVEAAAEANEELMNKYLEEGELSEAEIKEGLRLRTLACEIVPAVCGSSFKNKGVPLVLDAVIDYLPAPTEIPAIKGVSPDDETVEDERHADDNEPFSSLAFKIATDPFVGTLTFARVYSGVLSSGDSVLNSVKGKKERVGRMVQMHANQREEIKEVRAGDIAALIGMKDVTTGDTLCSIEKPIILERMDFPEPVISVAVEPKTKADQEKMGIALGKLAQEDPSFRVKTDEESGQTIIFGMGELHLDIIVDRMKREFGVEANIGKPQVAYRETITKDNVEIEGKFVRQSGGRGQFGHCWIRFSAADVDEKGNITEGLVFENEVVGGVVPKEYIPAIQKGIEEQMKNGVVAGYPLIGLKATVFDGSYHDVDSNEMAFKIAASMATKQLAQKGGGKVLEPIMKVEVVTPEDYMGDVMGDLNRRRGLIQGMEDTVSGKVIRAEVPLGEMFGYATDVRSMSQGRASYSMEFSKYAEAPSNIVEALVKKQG

Compound: C=C1NC(=O)CN(C)C(=O)CNC(=O)[C@H](Cc2c[nH]c3cccc(OC)c23)NC(=O)[C@H](Cc2c[nH]c3ccccc23)NC(=O)c2csc(n2)[C@@H](C)NC(=O)[C@@H](CC)NC1=O [argyrin B] (cyclo([dAbu][dAla(ψthiazole)]W[Trp(4-OMe)]G[Sar][Dha]))
- Binding to purified P. aeruginosa EF-G (in words) [1]: bound purified P. aeruginosa EF-G tightly; also recorded: Very tight binding
- Binding by SPR (in words) [2]: failed to bind argyrin B sufficiently to generate a Kd value
- Binding site in co-crystal structure [3]: bound at the interface of domains III and V
